For experiment [1], the system named is M70 (electrode form) (DNA, aptamer) GCTTCCAGCTTATTGAATTACACGCAGAGGGTAGCGGCTCTGCGCATTCAATTGCTGCGCGCTGAAGCGCGGAAGC
Kind of experiment: differential pulse voltammetry aptasensor. To be noted: peak current falls with log E2, 5 pg/mL to 20 ng/mL; immobilised aptamer.

Experiment [2] relates to HEV1 (electrode form) (DNA, aptamer) AGCAGCTTATTGCTGAATTTTT
Description: differential pulse voltammetry aptasensor. To be noted: peak current falls with log E2, from 5 pg/mL; immobilised aptamer.

Experiment [3] deals with HEV2 (MST form) (DNA, aptamer) AGCAGATGAATCTGAATTTTT
Description: microscale thermophoresis. To be noted: NaCl 300 mM, MgCl2 5 mM (aptamer buffer); 20 mM Tris pH 7.6, 0.01% Tween 20; highest E2 1000 nM. (In general: In MST a laser heats a spot of the sample, and binding alters the fluorescence response.)

Experiment [4] relates to M70 (colorimetric form) (DNA, aptamer) GCTTCCAGCTTATTGAATTACACGCAGAGGGTAGCGGCTCTGCGCATTCAATTGCTGCGCGCTGAAGCGCGGAAGC
Description: AuNP aggregation colorimetry. Particulars: NaCl; A660/A520 ratio rises with E2; room temperature.

For experiment [5], the system named is HEV1 (MST form) (DNA, aptamer) AGCAGCTTATTGCTGAATTTTT
Description: microscale thermophoresis. To be noted: NaCl 300 mM, MgCl2 5 mM (aptamer buffer); 20 mM Tris pH 7.6, 0.01% Tween 20; E2 up to 1000 nM; 30 min incubation; abstract 92 nM.

Experiment [6] has as its system HEV1 (colorimetric form) (DNA, aptamer) AGCAGCTTATTGCTGAATTTTT
Kind of experiment: AuNP aggregation colorimetry. Particulars: NaCl; A660/A520 ratio rises with E2, 0.2 to 1 μg/mL; room temperature.

Usually KD stands for the equilibrium constant for the complex coming apart. For the compound `C[C@]12CC[C@@H]3c4ccc(O)cc4CC[C@H]3[C@@H]1CC[C@@H]2O`, the binding result is “yes” in experiment [1]; “yes” in experiment [2]; “no” in experiment [3]; “yes” in experiment [4]; “yes” in experiment [6]. Moreover, the equilibrium dissociation constant (KD) in experiment [5] was determined as 92.76 ± 66.02 nM.

The values are drawn from publication PMC10819485 (2024).
